The record followed here is US12391664B2, “GluN2C/D subunit selective antagonists of the N-methyl-D-aspartate receptor” (Emory University, priority 2018, dated 2025).

Holding throughout (format): cell-based
Assay [1] addresses T1, recombinant rat GluN1/GluN2A (Rattus norvegicus, UniProt P35439+Q00959).
T1 construct: expressed in transfected cells; host or cells: Xenopus laevis oocytes injected with cRNA (GluN1:GluN2 ratio 1:2)
The assay is described as follows: Two-electrode voltage-clamp recordings in Xenopus laevis oocytes, GluN2A. The following applies: oocytes, 100 μM glutamate and 30 μM glycine. As for the experimental part: (§1) All target compounds were evaluated for activity by the Traynelis laboratory at Emory University using two-electrode voltage-clamp recordings performed in Xenopus laevis oocytes expressing recombinant GluN2A-D subunits (Table 1). […] Two ester compounds 997-65 and 997-66 also performed no inhibition at GluN2A to GluN2D receptors. […] Consequently, for the compounds that Acker et al. already published, it was necessary to increase the concentration to 100 μM when collecting data for a concentration effect curve. […] Therefore, under this condition, we can only conclude that compound 997-67 remained potent at GluN2C/D-containing receptors, but its selectivity over GluN2A- and GluN2B-containing receptors could not be compared to 997-57. […] Finally, replacing the carboxylic acid to the bio-isostere amide yielded compounds 997-96 and 997-115, which dropped the potency 2- to 4-fold in comparison to their corresponding acids 997-74 and 997-114.
(§2) Two-electrode voltage-clamp recordings were performed in Xenopus laevis oocytes that were injected with mRNA to express recombinant rat GluN1/GluN2A, GluN1/GluN2B, GluN1/GluN2C, and GluN1/GluN2D. The recordings using unfertilized oocytes from Xenopus laevis were permitted by Emory University Institutional Animal Care and Use Committee (IACUC). An automatic injector (Nanoject II, Drummond Scientific) was used for cRNA injection using the pipettes filled with mineral oil. The cRNA that transcribed in vitro via the mMessage Machine kit (Ambion) was diluted with nuclease-free water, and then injected at GluN1/GluN2 with a ratio of 1:2. The oocytes were stored in Barth's solution that contained 88 mM NaCl, 5.0 mM Tris-HCl, 2.4 mM NaHCO3, 1.0 mM KCl, 0.84 mM MgSO4, 0.41 mM CaCl2, 0.33 mM Ca(NO3)2, 0.1 mg/ml gentamycin sulfate, 1.0 U/ml penicillin, and 1 μg/ml streptomycin at a pH of 7.4 and temperatures of 15-17° C. for two to five days before the two-electrode voltage-clamp recordings. When recording, the oocytes were placed in a perfusion chamber and continually washed with the recording solution comprised of 90 mM NaCl, 1.0 mM KCl, 0.50 mM BaCl2, 0.005 mM EDTA, and 10 mM HEPES at a pH of 7.4 and a temperature of 23° C. Glass electrodes with a tip resistance of 0.5 to 2.5 MΩ were obtained from thin-walled glass capillary tubes. Voltage electrodes and current electrodes were filled with 0.3 M and 3.0 M KCl, respectively. The recordings were executed with the oocytes membrane potential holding at −40 m V by an OC-725 amplifier (Warner Instrument Co). All compounds were dissolved in dimethyl sulfoxide (DMSO) as 20 mM stock solutions and future diluted to reach the desired concentration (0.05-0.5% (vol/vol) DMSO) in recording solution comprised of 30 μM glycine and 100 μM glutamate. Each compound was recorded 3-7 times in the least 4 oocytes from at least 2 different Xenopus laevis.
(§3) To evaluate the inhibition of compounds, the concentration-response curve was fitted with the average two-electrode voltage-clamp recording results with the equation
(§4) [formula] • where IC50 is the concentration of compounds that inhibit half maximal of the current response and N is the Hill slope.
Background: Two-electrode voltage clamp is typically applied to oocytes expressing channels or transporters.

Assay [2] addresses T2, recombinant rat GluN1/GluN2B (Rattus norvegicus, UniProt P35439+Q00960).
T2 construct: expressed in transfected cells; host or cells: Xenopus laevis oocytes injected with cRNA (GluN1:GluN2 ratio 1:2)
Briefly: Two-electrode voltage-clamp recordings in Xenopus laevis oocytes, GluN2B. The following applies: oocytes, 100 μM glutamate and 30 μM glycine. As to the method:
as §1, §2, §3, §4

Assay [3] concerns the target T3, recombinant rat GluN1/GluN2D (Rattus norvegicus, UniProt P35439+Q62645).
T3 construct: expressed in transfected cells; host or cells: Xenopus laevis oocytes injected with cRNA (GluN1:GluN2 ratio 1:2)
Briefly: Two-electrode voltage-clamp recordings in Xenopus laevis oocytes, GluN2D. As to the method: as §1, §2, §3, §4

Assay [4] concerns the target T4, recombinant rat GluN1/GluN2D (Rattus norvegicus, UniProt Q62645).
T4 construct: expressed in transfected cells; host or cells: Xenopus laevis oocytes injected with cRNA (GluN1:GluN2 ratio 1:2)
The description is as above. The following applies: for 2A IC50 / 2D IC50 / 2B IC50 / 2D IC50: ratio of IC50 values. As for the experimental part: as §1, §2, §3, §4

Assay [5] concerns the target T5, recombinant rat GluN1/GluN2C (Rattus norvegicus, UniProt P35439+Q00961).
T5 construct: expressed in transfected cells; host or cells: Xenopus laevis oocytes injected with cRNA (GluN1:GluN2 ratio 1:2)
Briefly: Two-electrode voltage-clamp recordings in Xenopus laevis oocytes, GluN2C. The following applies: oocytes, 100 μM glutamate and 30 μM glycine; read-out: GluN2C IC50. As for the experimental part:
as §1, §2, §3, §4

Setting [6] is: oocytes, 100 μM glutamate and 30 μM glycine, read-out: GluN2D IC50.
Setting [7] is: read-out: IC50 at GluN2D-containing receptors.

Read-outs that look alike come from different tables or passages of the source.

T1 sequence (Q00959 23-1464, other chains not shown): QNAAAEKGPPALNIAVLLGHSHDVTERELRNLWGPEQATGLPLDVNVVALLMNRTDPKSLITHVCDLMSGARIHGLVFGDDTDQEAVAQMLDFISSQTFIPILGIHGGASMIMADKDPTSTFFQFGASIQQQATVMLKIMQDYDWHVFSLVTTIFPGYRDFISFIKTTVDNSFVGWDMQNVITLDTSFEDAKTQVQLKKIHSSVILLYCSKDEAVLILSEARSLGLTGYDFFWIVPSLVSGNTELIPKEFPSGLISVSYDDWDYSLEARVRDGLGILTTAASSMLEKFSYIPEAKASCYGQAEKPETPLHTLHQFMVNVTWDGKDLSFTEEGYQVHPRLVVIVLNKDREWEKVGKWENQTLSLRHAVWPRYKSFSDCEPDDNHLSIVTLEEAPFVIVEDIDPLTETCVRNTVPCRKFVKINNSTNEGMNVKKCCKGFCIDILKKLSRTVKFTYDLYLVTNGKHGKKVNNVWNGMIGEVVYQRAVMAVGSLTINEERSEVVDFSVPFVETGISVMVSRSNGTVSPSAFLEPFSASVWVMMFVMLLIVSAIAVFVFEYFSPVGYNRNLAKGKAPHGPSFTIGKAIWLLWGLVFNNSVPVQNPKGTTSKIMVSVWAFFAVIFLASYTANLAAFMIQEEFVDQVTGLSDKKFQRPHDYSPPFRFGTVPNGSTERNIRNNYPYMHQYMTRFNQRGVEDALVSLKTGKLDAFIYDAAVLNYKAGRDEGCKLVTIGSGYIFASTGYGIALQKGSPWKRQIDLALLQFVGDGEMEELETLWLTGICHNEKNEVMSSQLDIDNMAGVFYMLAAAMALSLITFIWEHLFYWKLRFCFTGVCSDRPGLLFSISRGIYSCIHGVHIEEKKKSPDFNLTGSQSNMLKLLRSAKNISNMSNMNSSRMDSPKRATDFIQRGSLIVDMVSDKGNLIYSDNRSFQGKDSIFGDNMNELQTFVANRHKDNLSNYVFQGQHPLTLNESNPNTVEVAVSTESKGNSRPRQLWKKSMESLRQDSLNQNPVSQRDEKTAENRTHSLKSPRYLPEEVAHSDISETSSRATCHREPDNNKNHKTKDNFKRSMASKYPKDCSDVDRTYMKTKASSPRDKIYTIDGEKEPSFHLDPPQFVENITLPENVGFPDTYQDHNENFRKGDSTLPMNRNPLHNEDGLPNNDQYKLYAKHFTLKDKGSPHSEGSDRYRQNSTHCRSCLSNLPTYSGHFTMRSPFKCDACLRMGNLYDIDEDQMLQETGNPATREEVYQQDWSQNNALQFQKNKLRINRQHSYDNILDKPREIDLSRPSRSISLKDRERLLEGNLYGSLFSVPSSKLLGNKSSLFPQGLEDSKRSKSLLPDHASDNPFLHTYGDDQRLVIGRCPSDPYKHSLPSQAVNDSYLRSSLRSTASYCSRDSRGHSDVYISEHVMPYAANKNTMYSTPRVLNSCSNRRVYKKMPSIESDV
T4 sequence (Q62645 28-1323, other chains not shown): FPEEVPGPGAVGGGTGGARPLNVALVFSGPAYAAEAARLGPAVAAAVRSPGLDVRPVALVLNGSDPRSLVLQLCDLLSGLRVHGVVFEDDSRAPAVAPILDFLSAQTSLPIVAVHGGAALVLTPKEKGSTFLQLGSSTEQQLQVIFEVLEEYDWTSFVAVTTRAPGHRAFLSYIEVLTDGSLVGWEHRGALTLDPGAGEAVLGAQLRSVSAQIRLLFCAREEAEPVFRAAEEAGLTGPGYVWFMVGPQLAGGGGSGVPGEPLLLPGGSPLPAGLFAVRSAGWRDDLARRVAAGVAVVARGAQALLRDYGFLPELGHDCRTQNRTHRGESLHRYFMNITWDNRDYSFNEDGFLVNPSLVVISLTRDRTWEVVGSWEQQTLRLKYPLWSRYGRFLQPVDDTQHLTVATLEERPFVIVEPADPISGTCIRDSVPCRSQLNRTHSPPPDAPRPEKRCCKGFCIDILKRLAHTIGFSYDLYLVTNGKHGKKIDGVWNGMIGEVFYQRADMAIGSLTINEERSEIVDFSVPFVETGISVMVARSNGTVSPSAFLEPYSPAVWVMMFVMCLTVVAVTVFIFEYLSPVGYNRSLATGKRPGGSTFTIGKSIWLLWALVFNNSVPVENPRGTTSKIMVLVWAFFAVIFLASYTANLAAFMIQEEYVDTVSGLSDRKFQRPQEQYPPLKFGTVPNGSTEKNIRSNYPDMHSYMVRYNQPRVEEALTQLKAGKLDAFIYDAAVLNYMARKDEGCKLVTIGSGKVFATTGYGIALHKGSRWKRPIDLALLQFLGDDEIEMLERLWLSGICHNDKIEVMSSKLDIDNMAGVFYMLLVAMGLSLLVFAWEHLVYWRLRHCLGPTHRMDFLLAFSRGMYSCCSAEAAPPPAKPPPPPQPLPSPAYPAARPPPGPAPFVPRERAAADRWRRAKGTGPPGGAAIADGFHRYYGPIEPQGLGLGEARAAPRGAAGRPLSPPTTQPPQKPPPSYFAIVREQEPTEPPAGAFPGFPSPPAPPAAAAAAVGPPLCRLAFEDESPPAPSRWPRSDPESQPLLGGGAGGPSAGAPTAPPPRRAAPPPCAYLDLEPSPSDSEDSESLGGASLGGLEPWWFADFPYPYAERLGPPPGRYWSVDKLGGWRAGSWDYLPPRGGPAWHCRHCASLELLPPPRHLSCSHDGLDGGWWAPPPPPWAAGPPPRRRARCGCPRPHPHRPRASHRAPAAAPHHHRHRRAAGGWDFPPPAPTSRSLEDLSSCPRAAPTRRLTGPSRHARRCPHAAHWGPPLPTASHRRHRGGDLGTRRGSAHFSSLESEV
T3 sequence (Q62645 28-1323, other chains not shown): as above
T5 sequence (Q00961 20-1237, other chains not shown): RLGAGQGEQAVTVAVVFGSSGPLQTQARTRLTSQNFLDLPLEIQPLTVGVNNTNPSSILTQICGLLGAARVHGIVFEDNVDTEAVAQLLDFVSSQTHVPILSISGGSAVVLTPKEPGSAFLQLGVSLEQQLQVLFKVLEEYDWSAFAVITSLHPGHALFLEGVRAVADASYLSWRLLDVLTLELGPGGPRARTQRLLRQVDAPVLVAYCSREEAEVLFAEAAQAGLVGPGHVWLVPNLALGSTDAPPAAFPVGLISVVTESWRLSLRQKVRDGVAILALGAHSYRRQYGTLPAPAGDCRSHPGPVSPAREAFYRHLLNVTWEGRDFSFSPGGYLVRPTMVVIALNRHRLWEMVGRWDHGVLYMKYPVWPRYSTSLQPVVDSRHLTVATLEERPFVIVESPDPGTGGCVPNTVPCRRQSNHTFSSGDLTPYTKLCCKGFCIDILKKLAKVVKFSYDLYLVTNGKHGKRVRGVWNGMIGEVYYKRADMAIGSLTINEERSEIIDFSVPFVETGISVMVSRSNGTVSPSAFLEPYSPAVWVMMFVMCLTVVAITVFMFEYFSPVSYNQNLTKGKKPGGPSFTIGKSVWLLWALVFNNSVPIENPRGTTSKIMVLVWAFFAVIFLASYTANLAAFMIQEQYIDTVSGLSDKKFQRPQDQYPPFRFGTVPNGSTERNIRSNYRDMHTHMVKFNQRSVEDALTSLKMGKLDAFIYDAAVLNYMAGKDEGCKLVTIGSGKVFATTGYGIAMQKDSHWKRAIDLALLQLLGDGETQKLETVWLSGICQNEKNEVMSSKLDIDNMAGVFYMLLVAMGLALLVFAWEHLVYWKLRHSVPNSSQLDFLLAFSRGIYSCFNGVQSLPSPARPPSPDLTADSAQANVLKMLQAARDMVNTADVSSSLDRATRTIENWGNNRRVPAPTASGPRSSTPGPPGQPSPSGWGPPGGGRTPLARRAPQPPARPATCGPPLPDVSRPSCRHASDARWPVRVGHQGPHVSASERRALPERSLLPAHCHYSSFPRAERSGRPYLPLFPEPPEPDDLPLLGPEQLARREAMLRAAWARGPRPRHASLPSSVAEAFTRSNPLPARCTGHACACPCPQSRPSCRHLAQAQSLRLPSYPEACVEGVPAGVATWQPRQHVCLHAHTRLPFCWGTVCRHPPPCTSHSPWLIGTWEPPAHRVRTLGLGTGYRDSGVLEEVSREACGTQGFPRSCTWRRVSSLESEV

With `O=C(O)CCC(=O)N1N=C(c2c(-c3ccc(Cl)cc3)c3ccccc3[nH]c2=S)CC1c1ccc(Cl)cc1` (centres unmarked) [997-97, 4-(5-(4-chlorophenyl)-3-(4-(4-chlorophenyl)-2-thioxo-1,2-dihydroquinolin-3-yl)-4,5-dihydro-1H-pyrazol-1-yl)-4-oxobutanoic acid], the concentration for half-maximal inhibition (IC50) in assay [1] was 16 µM; in assay [2], 30 µM; in assay [3] (setting [6]), 350 nM; in assay [5], 480 nM. For the same compound, the “2A IC50 / 2D IC50” value in assay [4] was 46. Besides, in assay [4], the “2B IC50 / 2D IC50” value came to 86.

`O=C(O)CCC(=O)N1N=C(c2c(-c3ccc(Cl)cc3)c3ccccc3[nH]c2=O)CC1c1ccc(Cl)s1` (centres unmarked) [997-111, 4-(3-(4-(4-chlorophenyl)-2-oxo-1,2-dihydroquinolin-3-yl)-5-(5-chlorothiophen-2-yl)-4,5-dihydro-1H-pyrazol-1-yl)-4-oxobutanoic acid]: the half-maximal inhibitory concentration (IC50) in assay [1] came to 21 µM; in assay [2], 34 µM; in assay [3] (setting [6]) it was 800 nM; in assay [5] it was 1300 nM. In assay [4], the “2B IC50 / 2D IC50” value is listed as 43.

`O=C(O)CC(F)(F)C(=O)N1N=C(c2c(-c3ccc(F)cc3)c3cc(F)ccc3[nH]c2=O)CC1c1ccc(Cl)cc1` (centres unmarked) [997-102, 4-(5-(4-chlorophenyl)-3-(6-fluoro-4-(4-fluorophenyl)-2-oxo-1,2-dihydroquinolin-3-yl)-4,5-dihydro-1H-pyrazol-1-yl)-3,3-difluoro-4-oxobutanoic acid]: the IC50 in assay [1] stood at 5.9 µM; in assay [2] it was 7.3 µM; in assay [3] (setting [7]), 400 nM; in assay [5], 1000 nM.

As to `O=C(O)CC(F)(F)C(=O)N1N=C(c2c(-c3ccc(Cl)s3)c3ccccc3[nH]c2=O)CC1c1ccc(Cl)cc1` (centres unmarked) [997-109, 4-(5-(4-chlorophenyl)-3-(4-(5-chlorothiophen-2-yl)-2-oxo-1,2-dihydroquinolin-3-yl)-4,5-dihydro-1H-pyrazol-1-yl)-3,3-difluoro-4-oxobutanoic acid], the IC50 in assay [1] turned out to be 2.6 µM; in assay [2], 4 µM; in assay [3] (setting [7]), 100 nM; in assay [5], 280 nM.

Take `O=C(O)CC(F)(F)C(=O)N1N=C(c2c(-c3ccc(Cl)cc3)c3ccccc3[nH]c2=O)CC1c1ccc(C(F)(F)F)cc1` (centres unmarked) [997-113, 4-(3-(4-(4-chlorophenyl)-2-oxo-1,2-dihydroquinolin-3-yl)-5-(4-(trifluoromethyl)phenyl)-4,5-dihydro-1H-pyrazol-1-yl)-3,3-difluoro-4-oxobutanoic acid]: the IC50 is 2.3 µM in assay [1], 2.9 µM in assay [2], 80 nM in assay [3] (setting [6]) and 170 nM in assay [5]. In addition, in assay [4], the “2B IC50 / 2D IC50” value is reported as 36.

Regarding `O=C(O)CC(F)(F)C(=O)N1N=C(c2c(-c3ccc(Cl)cc3)c3ccccc3[nH]c2=O)CC1c1ccc(F)cc1` (centres unmarked) [997-104, 4-(3-(4-(4-chlorophenyl)-2-oxo-1,2-dihydroquinolin-3-yl)-5-(4-fluorophenyl)-4,5-dihydro-1H-pyrazol-1-yl)-3,3-difluoro-4-oxobutanoic acid], the concentration for half-maximal inhibition (IC50) in assay [1] is 20 µM; in assay [2], 30 µM; in assay [3] (setting [6]) it was 810 nM; in assay [5], 1600 nM. In assay [4] (comparator 997-74), the “fold decrease of potency at GluN2D in comparison to 997-74” value was found to be 16 fold. Besides, the “2B IC50 / 2D IC50” value in assay [4] turned out to be 37.

On to `Cc1ccc2[nH]c(=O)c(C3=NN(C(=O)C(F)(F)CC(=O)O)C(c4ccc(Cl)cc4)C3)c(-c3ccc(Cl)cc3)c2c1` (centres unmarked) [997-90, 4-(5-(4-chlorophenyl)-3-(4-(4-chlorophenyl)-6-methyl-2-oxo-1,2-dihydroquinolin-3-yl)-4,5-dihydro-1H-pyrazol-1-yl)-3,3-difluoro-4-oxobutanoic acid], for which the IC50 in assay [1] came to 3 µM; in assay [2], 3 µM; in assay [3] (setting [6]) it was 200 nM; in assay [5] it was 400 nM.

In the case of `O=C(O)CC(F)(F)C(=O)N1N=C(c2c(-c3ccc(Cl)cc3)c3ccccc3[nH]c2=O)CC1c1ccc(Cl)cc1` (centres unmarked) [997-74, 4-(5-(4-chlorophenyl)-3-(4-(4-chlorophenyl)-2-oxo-1,2-dihydroquinolin-3-yl)-4,5-dihydro-1H-pyrazol-1-yl)-3,3-difluoro-4-oxobutanoic acid], the IC50 in assay [1] was determined as 11 µM. The IC50 in assay [2] was 6.9 µM. In assay [4], the “selectivity at GluN2D- over GluN2A-containing receptor” value is recorded as “approximately 220 fold”, the “2A IC50 / 2D IC50” value was determined as 220 and the “2B IC50 / 2D IC50” value is on record as 138.

In the case of `O=C(O)CC(F)(F)C(=O)N1N=C(c2ccccc2-c2ccc(F)c(Cl)c2)CC1c1ccc(Cl)cc1` (centres unmarked) [997-120, 4-(3-(3′-chloro-4′-fluoro-[1,1′-biphenyl]-2-yl)-5-(4-chlorophenyl)-4,5-dihydro-1H-pyrazol-1-yl)-3,3-difluoro-4-oxobutanoic acid], the IC50 in assay [1] stood at 11 µM; in assay [2], 8.8 µM; in assay [3] (setting [6]), 3360 nM; in assay [5], 5230 nM.

`O=C(O)CCC(=O)N1N=C(c2c(-c3ccc(Cl)cc3)c3ccccc3[nH]c2=O)CC1c1ccc(C(F)(F)F)cc1` (centres unmarked) [997-112, 4-(3-(4-(4-chlorophenyl)-2-oxo-1,2-dihydroquinolin-3-yl)-5-(4-(trifluoromethyl)phenyl)-4,5-dihydro-1H-pyrazol-1-yl)-4-oxobutanoic acid]: the IC50 in assay [1] amounted to 13 µM; in assay [2], 20 µM; in assay [3] (setting [6]), 200 nM; in assay [5], 350 nM. The “2B IC50 / 2D IC50” value in assay [4] stood at 100.

As to `O=C(O)CCC(=O)N1N=C(c2c(-c3ccc(Cl)s3)c3ccccc3[nH]c2=O)CC1c1ccc(Cl)cc1` (centres unmarked) [997-108, 4-(5-(4-chlorophenyl)-3-(4-(5-chlorothiophen-2-yl)-2-oxo-1,2-dihydroquinolin-3-yl)-4,5-dihydro-1H-pyrazol-1-yl)-4-oxobutanoic acid], the IC50 came to 13 µM in assay [1], 23 µM in assay [2], 400 nM in assay [3] (setting [6]) and 670 nM in assay [5].

On to `O=C(CC(F)(F)C(=O)O)N1N=C(c2c(-c3cccc(F)c3)c3ccccc3[nH]c2=O)CC1c1ccc(Cl)cc1` (centres unmarked) [997-69, 4-{5-(4-chlorophenyl)-3-[4-(3-fluorophenyl)-2-oxo-1,2-dihydroquinolin-3-yl]-4,5-dihydro-1H-pyrazol-1-yl}-2,2-difluoro-4-oxobutanoic acid], for which, in assay [1], the half-inhibitory concentration (IC50) came to 28 µM. Also, in assay [2], the IC50 amounted to 48 µM. For the same compound, in assay [4], the “2A IC50 / 2D IC50” value came to 56 and the “2B IC50 / 2D IC50” value was 96.

For the compound `O=C(CC(F)(F)C(=O)O)N1N=C(c2c(-c3ccc(Cl)cc3)c3ccccc3[nH]c2=O)CC1c1ccc(Cl)cc1` (centres unmarked) [997-114, 4-(5-(4-chlorophenyl)-3-(4-(4-chlorophenyl)-2-oxo-1,2-dihydroquinolin-3-yl)-4,5-dihydro-1H-pyrazol-1-yl)-2,2-difluoro-4-oxobutanoic acid], the half-inhibitory concentration (IC50) in assay [1] was found to be 5.67 µM; in assay [2], 8.15 µM; in assay [3] (setting [7]), 170 nM; in assay [5], 338 nM. Moreover, in assay [4], the “2A IC50 / 2D IC50” value is 33. The “2B IC50 / 2D IC50” value in assay [4] was 48.

What is called IC50 is the concentration at which inhibition is half-maximal.
